Target: T1, USP1/UAF1 (Homo sapiens, UniProt O94782)
T1 construct: purchased R&D Systems
Assay: Deubiquitination assay for USP1/UAF1 (ubiquitin-rhodamine 110 substrate)
Type: biochemical
Conditions: 0.5 nM USP1/UAF1, 150 nM ubiquitin-rhodamine, 50% inhibition compared to DMSO control
Protocol: Deubiquitination assay for USP1/UAF1: compounds described here were tested for their ability to inhibit USP1 deubiquitinase activity in this assay using ubiquitin-rhodamine 110 as the substrate. The assay was conducted in the assay buffer (50 mM Tris-HCl, pH 7.8, 0.5 mM EDTA, 0.1 mg/ml Bovine Serum Albumin, 1 mM DTT, 0.01% Tween-20) in 384 well plates. 0.5 nM USP1/UAF1 (R&D Systems) was incubated with compounds in dose response format for 10 minutes at room temperature. Then the reaction was initiated by addition of 150 nM ubiquitin-rhodamine (R&D Systems). The fluorescence intensity was read after 45 minutes at Ex488/Em535 by CLARIOstar (BMG Labtech). IC50 response curves were plotted.

T1 sequence (O94782 whole entry): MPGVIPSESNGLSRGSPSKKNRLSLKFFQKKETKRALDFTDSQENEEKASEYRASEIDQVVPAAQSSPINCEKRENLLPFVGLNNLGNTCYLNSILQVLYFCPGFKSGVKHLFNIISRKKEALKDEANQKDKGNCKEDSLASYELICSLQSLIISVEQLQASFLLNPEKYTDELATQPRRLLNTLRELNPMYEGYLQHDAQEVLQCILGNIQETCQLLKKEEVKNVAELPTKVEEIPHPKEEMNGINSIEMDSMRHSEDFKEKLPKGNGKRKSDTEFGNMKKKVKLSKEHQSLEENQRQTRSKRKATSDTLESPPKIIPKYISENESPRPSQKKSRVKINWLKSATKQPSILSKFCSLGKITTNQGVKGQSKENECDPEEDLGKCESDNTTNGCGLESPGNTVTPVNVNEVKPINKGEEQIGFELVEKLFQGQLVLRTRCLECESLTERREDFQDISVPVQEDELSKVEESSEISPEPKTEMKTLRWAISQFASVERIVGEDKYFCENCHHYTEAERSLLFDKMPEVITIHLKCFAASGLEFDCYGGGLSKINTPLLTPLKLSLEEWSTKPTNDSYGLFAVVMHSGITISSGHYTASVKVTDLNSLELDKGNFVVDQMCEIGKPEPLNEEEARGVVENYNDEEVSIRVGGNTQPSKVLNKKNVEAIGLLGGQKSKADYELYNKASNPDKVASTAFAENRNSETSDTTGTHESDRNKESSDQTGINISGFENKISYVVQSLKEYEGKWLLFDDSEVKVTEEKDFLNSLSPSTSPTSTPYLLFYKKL
T1 sequence (Q8TAF3 whole entry partner): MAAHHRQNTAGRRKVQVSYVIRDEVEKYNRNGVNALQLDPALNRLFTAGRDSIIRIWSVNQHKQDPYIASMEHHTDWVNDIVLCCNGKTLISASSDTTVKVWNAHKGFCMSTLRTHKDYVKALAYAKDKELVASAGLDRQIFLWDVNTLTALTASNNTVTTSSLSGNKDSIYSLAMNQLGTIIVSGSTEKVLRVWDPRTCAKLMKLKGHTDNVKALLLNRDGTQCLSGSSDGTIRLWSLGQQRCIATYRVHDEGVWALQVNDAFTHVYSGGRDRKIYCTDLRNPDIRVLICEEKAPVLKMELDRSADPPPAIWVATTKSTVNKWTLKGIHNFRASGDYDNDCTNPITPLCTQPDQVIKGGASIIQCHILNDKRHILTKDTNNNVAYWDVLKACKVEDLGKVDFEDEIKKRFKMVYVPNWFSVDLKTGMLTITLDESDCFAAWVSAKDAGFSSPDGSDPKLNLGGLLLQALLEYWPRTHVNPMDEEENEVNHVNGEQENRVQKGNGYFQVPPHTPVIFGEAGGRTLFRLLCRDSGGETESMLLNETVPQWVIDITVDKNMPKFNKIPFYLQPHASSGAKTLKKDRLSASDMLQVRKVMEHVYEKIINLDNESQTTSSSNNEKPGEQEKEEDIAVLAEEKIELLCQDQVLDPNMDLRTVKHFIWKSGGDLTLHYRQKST

First: 1^6-cyclopropyl-4^4-(1-isopropyl-4-(trifluoromethyl)-1H-imidazol-2-yl)-2^1-methyl-2^1H-5,8-dioxa-2(5,3)-pyrazolo[4,3-d]pyrimidina-1(5,4)-pyrimidina-4(1,2)-benzenacyclooctaphane [Example 22]
Second: 1^6-cyclopropyl-4^4-(1-isopropyl-4-(trifluoromethyl)-1H-imidazol-2-yl)-2^1H-9-oxa-5-aza-2(6,1)-pyrazolo[3,4-d]pyrimidina-1(5,4)-pyrimidina-4(1,2)-benzenacyclononaphan-6-one [Example 15]
The IC50 of the first is lower: no more than 100 nM for the first, no less than 1000 nM for the second. The first is the more potent here.

“1^6-cyclopropyl-4^4-(1-isopropyl-4-(trifluoromethyl)-1H-imidazol-2-yl)-2^1H-9-oxa-5-aza-2(6,1)-pyrazolo[3,4-d]pyrimidina-1(5,4)-pyrimidina-4(1,3)-benzenacyclonona-phane [Example 50]” and `Cc1cnc2nc1NCc1ccc(-c3nc(C(F)(F)F)cn3C(C)C)cc1OCCOc1ncnc(C3CC3)c1-2` [Example 1, 1^6-cyclopropyl-5^4-(1-isopropyl-4-(trifluoromethyl)-1H-imidazol-2-yl)-2^5-methyl-6,9-dioxa-3-aza-1(5,4),2(2,4)-dipyrimidina-5(1,2)-benzenacyclononaphane] cannot be ordered by IC50: no more than 100 nM for the first, no more than 100 nM for the second.

First: CC(C)n1cc(C(F)(F)F)nc1-c1ccc2c(c1)OCCOc1ncnc(C3CC3)c1-c1ncc3cnn(c3n1)C2 [Example 2, 1^6-cyclopropyl-4^4-(1-isopropyl-4-(trifluoromethyl)-1H-imidazol-2-yl)-2^1H-5,8-dioxa-2(6,1)-pyrazolo[3,4-d]pyrimidina-1(5,4)-pyrimidina-4(1,2)-benzenacyclooctaphane]
Second: CC(C)n1cc(C(F)(F)F)nc1-c1ccc2c(c1)OCCCCOc1ncnc(C3CC3)c1-c1ncc3cnn(c3n1)C2 [Example 3, 1^6-cyclopropyl-4^4-(1-isopropyl-4-(trifluoromethyl)-1H-imidazol-2-yl)-2^1H-5,10-dioxa-2(6,1)-pyrazolo[3,4-d]pyrimidina-1(5,4)-pyrimidina-4(1,2)-benzenacyclodecaphane]
The IC50 of the first is lower: no more than 100 nM for the first, no less than 1000 nM for the second. The first is the more potent here.

Going from `CC(C)n1cc(C(F)(F)F)nc1-c1ccc2c(c1)CCOc1ncnc(C3CC3)c1-c1ncc3cnn(c3n1)C2` [Example 4, 1^6-cyclopropyl-4^4-(1-isopropyl-4-(trifluoromethyl)-1H-imidazol-2-yl)-2^1H-7-oxa-2(6,1)-pyrazolo[3,4-d]pyrimidina-1(5,4)-pyrimidina-4(1,2)-benzenacycloheptaphane] to `CC(C)n1cc(C(F)(F)F)nc1-c1ccc2c(c1)OCCCOc1ncnc(C3CC3)c1-c1ncc3cnn(c3n1)C2` [Example 5, 1^6-cyclopropyl-4^4-(1-isopropyl-4-(trifluoromethyl)-1H-imidazol-2-yl)-2^1H-5,9-dioxa-2(6,1)-pyrazolo[3,4-d]pyrimidina-1(5,4)-pyrimidina-4(1,2)-benzenacyclononaphane], the IC50 falls from no less than 1000 nM to no more than 100 nM. The second is the more potent here.

`CC(C)c1cccc2c1-c1ncc3cnn(c3n1)Cc1ccc(-c3nc(C(F)(F)F)cn3C(C)C)cc1OCCO2` [Example 7, 1^6-isopropyl-4^4-(1-isopropyl-4-(trifluoromethyl)-1H-imidazol-2-yl)-2^1H-5,8-dioxa-2(6,1)-pyrazolo[3,4-d]pyrimidina-1,4(1,2)-dibenzenacyclooctaphane] and `CC(C)n1cc(C(F)(F)F)nc1-c1ccc2c(c1)NCCCOc1ncnc(C3CC3)c1-c1ncc3cnn(c3n1)C2` [Example 8, 1^6-cyclopropyl-4^4-(1-isopropyl-4-(trifluoromethyl)-1H-imidazol-2-yl)-2^1H-9-oxa-5-aza-2(6,1)-pyrazolo[3,4-d]pyrimidina-1(5,4)-pyrimidina-4(1,2)-benzenacyclononaphane] cannot be ordered by IC50: no more than 100 nM for the first, no more than 100 nM for the second.

`CC(C)n1cc(C(F)(F)F)nc1-c1ccc2c(c1)CCCOc1ncnc(C3CC3)c1-c1ncc3cnn(c3n1)C2` [Example 9, 1^6-cyclopropyl-4^4-(1-isopropyl-4-(trifluoromethyl)-1H-imidazol-2-yl)-2^1H-8-oxa-2(6,1)-pyrazolo[3,4-d]pyrimidina-1(5,4)-pyrimidina-4(1,2)-benzenacyclooctaphane] showed an IC50 of no more than 100 nM.
